# Entries after “also recorded” stand apart in the source; their conditions may differ. Read-outs that look alike come from different tables or passages of the source.
# Legend:
# L-proline-4-hydroxylase = L-proline-4-hydroxylase (Dactylosporangium salmoneum, UniProt A0ABP5TRQ3); experiment: Substrate omission and addition tests on the enzyme reaction (indispensable compounds, promoters, inhibitors); type: biochemical, Dactylosporangium sp. RH1; conditions: for Relative Activity: 80 mM TES pH 7.5, 30° C., 15 minutes, standard reaction mixture = 100; for activity of the enzyme in the presence of the ion, of the original activity: ion at 1 mM
# Protocol: The reaction was initiated by addition of the enzyme and continued for 15 minutes at 30° C. The reaction was stopped by heating the reaction mixture at 100° C. for 2 minutes. […] The reaction was stopped by adding 30 μl of 1 N HCl to the reaction mixture, and the precipitates formed were removed therefrom by centrifugation and filtration.
# The HPLC for the determination was carried out under the following conditions: […]
# [1] = substrate: O=C(O)CCC(=O)C(=O)O; experiment: purified protein, by the assay type; conditions: other: 80 mM MES buffer (pH 6.5), 4 mM L-ascorbic acid, 2 mM ferrous sulfate
# [2] = substrate: O=C(O)[C@@H]1CCCN1; experiment: purified protein, by the assay type; conditions: other: 80 mM MES buffer (pH 6.5), 4 mM L-ascorbic acid, 2 mM ferrous sulfate
molecule,measurement,setting,value
O=C(O)CCC(=O)C(=O)O [2-ketoglutaric acid],need of the component for the enzyme reaction (in words),L-proline-4-hydroxylase,indispensable
same,Relative Activity,L-proline-4-hydroxylase; component not added (omitted),0
[Cu+2] [Cu^++],inhibition of the enzyme activity/reaction (in words),L-proline-4-hydroxylase,inhibit the reaction; also recorded: inhibited
same,Relative Activity,L-proline-4-hydroxylase; component added at 1 mM,13
same,"activity of the enzyme in the presence of the ion, of the original activity",L-proline-4-hydroxylase,13%
"O=C(O)CN(CCN(CC(=O)O)CC(=O)O)CC(=O)O [EDTA, ethylenediaminetetraacetic acid]",inhibition of the enzyme activity/reaction (in words),L-proline-4-hydroxylase,inhibit the reaction
same,activity of the enzyme in the presence of EDTA,L-proline-4-hydroxylase; 5 mM EDTA,no activity of the enzyme was detected
same,Relative Activity,L-proline-4-hydroxylase; component added at 5 mM,0
same,inhibition of the enzyme activity/reaction (in words),L-proline-4-hydroxylase; listed as ethylenediaminetetraacetic acid,inhibited
[Fe+2] [Fe^++],need of the component for the enzyme reaction (in words),L-proline-4-hydroxylase,indispensable
same,Relative Activity,L-proline-4-hydroxylase; component not added (omitted),0
O=C1O[C@H]([C@@H](O)CO)C(O)=C1O [L-ascorbic acid],promotion of the enzyme activity/reaction (in words),L-proline-4-hydroxylase,promotes the reaction
same,Relative Activity,L-proline-4-hydroxylase; component not added (omitted),51
same,promotion of the enzyme activity/reaction (in words),L-proline-4-hydroxylase; listed as Ascorbic acid,promotes the activity of the enzyme
same,promotion of the enzyme activity/reaction (in words),L-proline-4-hydroxylase; listed as L-Ascorbic acid,accelerates the activity of the enzyme
O=C(O)[C@@H]1CCCN1 [L-proline],need of the component for the enzyme reaction (in words),L-proline-4-hydroxylase,indispensable
same,Relative Activity,L-proline-4-hydroxylase; component not added (omitted),0
[Zn+2] [Zn^++],inhibition of the enzyme activity/reaction (in words),L-proline-4-hydroxylase,inhibit the reaction; also recorded: inhibited
same,Relative Activity,L-proline-4-hydroxylase; component added at 1 mM,6
same,"activity of the enzyme in the presence of the ion, of the original activity",L-proline-4-hydroxylase,6%
Catalase,Relative Activity,L-proline-4-hydroxylase; component not added (omitted),93
L-proline-4-hydroxylase (Dactylosporangium salmoneum) (protein) MLTPTELKQYREAGYLLIEDGLGPREVDCLRRAAAALYAQDSPDRTLEKDGRTVRAVHGCHRRDPVCRDLVRHPRLLGPAMQILSGDVYVHQFKINAKAPMTGDVWPWHQDYIFWAREDGMDRPHVVNVAVLLDEATHLNGPLLFVPGTHELGLIDVERRAPAGDGDAQWLPQLSADLDYAIDADLLARLTAGRGIESATGPAGSILLFDSRIVHGSGTNMSPHPRGVVLVTYNRTDNALPAQAAPRPEFLAARDATPLVPLPAGFALAQPV,Km,[1],550 µM
same,Km,[2],270 µM

# From patent publication US6617140B2
